# Assay: Blockade of CNGA1/CNGB1 expressed in Xenopus oocyte by electrophysiological method
row,Structure (SMILES),Kd
1,CN(C)CCOC(=O)c1ccc(NC2CCCCC2)cc1,17 µM
2,CCCCNc1ccc(C(=O)OCCCCN(CCCC)CCCC)cc1,1.3 µM
3,CN(C)CCOC(=O)c1ccc(NCc2ccccc2)cc1,16 µM
4,CCCCCCCCNc1ccc(C(=O)OCC[N+](C)(C)CC)cc1,1.6 µM
5,CCCCNc1ccc(C(=O)OCCN(CCCC)CCCC)cc1,1.1 µM
6,CC(C)CNc1ccc(C(=O)OCCN(C)C)cc1,20 µM

# The remaining lines, values ahead:
row,Kd,Structure (SMILES)
1,1.3 µM,CCCCCCCCNc1ccc(C(=O)OCCN(C)C)cc1
2,3.8 µM,CCCCCCNc1ccc(C(=O)OCCN(C)C)cc1
3,8.5 µM,CCCCNc1ccc(C(=O)OCCN(CC)CC)cc1 [P-BUTYLAMINOBENZOYLDIETHYLAMINOETHYL]
4,7.1 µM,CCCCNc1ccc(C(=O)OCCCCN(C)C)cc1
5,5.6 µM,CCCCNc1ccc(C(=O)OCCCN(CC)CC)cc1
6,1.3 µM,CCCCNc1ccc(C(=O)OCCCN(CCCC)CCCC)cc1
7,5 µM,CCCCNc1ccc(C(=O)OCCCN(C)C)cc1

# Reference: ChEMBL document CHEMBL1140802 (Bioorg Med Chem Lett, 2008)
